Laboratory results published in patent US20230123334A1, “AMINO LIPID COMPOUND, PREPARATION METHOD THEREFOR, AND APPLICATION THEREOF” (SHENZHEN SHENXIN BIOTECHNOLOGY CO., LTD., priority 2020, published 2023).

Assays:
HEK293 cells [1] = experiment: Preliminary screening as DNA vectors, GFP transfection of HEK293 cells; type: cell-based; settings: HEK293 cells; lipid/DOPE liposome with 75 ng plasmid DNA (psin-EGFP-IRES-Puro); number of cells expressing GFP divided by total number of nuclei (Hoechst)
Method in brief: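 Lipid + DOPE liposomes (NaOAc, pH 5.6) complexed w/ 75 ng psin-EGFP-IRES-Puro, 30 min RT; added to 3-5×10^4 HEK293/well, 37° C. Hoechst 0.2 μg/mL at 20-24 h, imaged after further 20-24 h. Efficiency = GFP+ cells / total nuclei.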

HEK293 cells [2] = experiment: Preliminary screening as mRNA vectors, EGFP mRNA transfection of HEK293 cells; type: cell-based; settings: HEK293 cells, 96-well plates, EGFP mRNA 50 ng per well; percentage of GFP fluorescent cells relative to total number of cells (Hoechst)
Method in brief: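 Each well of HEK293 cells received 50 ng of EGFP mRNA. Efficiency was expressed as percent GFP-expressing cells over Hoechst-defined total cell number.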

CCCCCCCCCCCCCCCCSc1nc(NCCN(CC)CC)nc(SCCCCCCCCCCCCCC)n1 [Compound S14S16D7]
Absolute DNA transfection efficiency in HEK293 cells (HEK293 cells [1]): 1.1%
Absolute mRNA transfection efficiency in HEK293 cells (HEK293 cells [2]): 1.8%

CCCCCCCCCCCCCCCCSc1nc(NCCCN2CCOCC2)nc(SCCCCCCCCCCCCCC)n1 [Compound S14S16D8]
Absolute DNA transfection efficiency in HEK293 cells (HEK293 cells [1]): 0.0%
Absolute mRNA transfection efficiency in HEK293 cells (HEK293 cells [2]): 0.0%

CCCCCCCCCCCCCCCCSc1nc(NCCCN2CCN(C)CC2)nc(SCCCCCCCCCCCCCC)n1 [Compound S14S16D9]
Absolute DNA transfection efficiency in HEK293 cells (HEK293 cells [1]): 0.0%
Absolute mRNA transfection efficiency in HEK293 cells (HEK293 cells [2]): 0.0%

CCCCCCCCCCCCCCCCSc1nc(NCC2CCN(C)CC2)nc(SCCCCCCCCCCCCCC)n1 [Compound S14S16D10]
Absolute DNA transfection efficiency in HEK293 cells (HEK293 cells [1]): 2.7%
Absolute mRNA transfection efficiency in HEK293 cells (HEK293 cells [2]): 0.8%

CCCCCCCCCCCCCCCCCCSc1nc(NCCN(C)C)nc(SCCCCCCCCCCCCCC)n1 [Compound S14S18D1]
Absolute DNA transfection efficiency in HEK293 cells (HEK293 cells [1]): 0.0%
Absolute mRNA transfection efficiency in HEK293 cells (HEK293 cells [2]): 0.0%

CCCCCCCCCCCCCCCCCCSc1nc(NCCN2CCOCC2)nc(SCCCCCCCCCCCCCC)n1 [Compound S14S18D2]
Absolute DNA transfection efficiency in HEK293 cells (HEK293 cells [1]): 0.2%
Absolute mRNA transfection efficiency in HEK293 cells (HEK293 cells [2]): 0.0%

CCCCCCCCCCCCCCCCCCSc1nc(NCCN2CCCC2)nc(SCCCCCCCCCCCCCC)n1 [Compound S14S18D3]
Absolute DNA transfection efficiency in HEK293 cells (HEK293 cells [1]): 2.8%
Absolute mRNA transfection efficiency in HEK293 cells (HEK293 cells [2]): 0.1%

CCCCCCCCCCCCCCCCCCSc1nc(NCCN2CCCCC2)nc(SCCCCCCCCCCCCCC)n1 [Compound S14S18D4]
Absolute DNA transfection efficiency in HEK293 cells (HEK293 cells [1]): 2.5%
Absolute mRNA transfection efficiency in HEK293 cells (HEK293 cells [2]): 0.8%

CCCCCCCCCCCCCCCCCCSc1nc(NCCN2CCN(C)CC2)nc(SCCCCCCCCCCCCCC)n1 [Compound S14S18D5]
Absolute DNA transfection efficiency in HEK293 cells (HEK293 cells [1]): 0.2%
Absolute mRNA transfection efficiency in HEK293 cells (HEK293 cells [2]): 1.0%

CCCCCCCCCCCCCCCCCCSc1nc(NCCCN(C)C)nc(SCCCCCCCCCCCCCC)n1 [Compound S14S18D6]
Absolute DNA transfection efficiency in HEK293 cells (HEK293 cells [1]): 1.2%
Absolute mRNA transfection efficiency in HEK293 cells (HEK293 cells [2]): 0.2%

CCCCCCCCCCCCCCCCCCSc1nc(NCCN(CC)CC)nc(SCCCCCCCCCCCCCC)n1 [Compound S14S18D7]
Absolute DNA transfection efficiency in HEK293 cells (HEK293 cells [1]): 0.9%
Absolute mRNA transfection efficiency in HEK293 cells (HEK293 cells [2]): 2.7%

CCCCCCCCCCCCCCCCCCSc1nc(NCCCN2CCOCC2)nc(SCCCCCCCCCCCCCC)n1 [Compound S14S18D8]
Absolute DNA transfection efficiency in HEK293 cells (HEK293 cells [1]): 0.2%
Absolute mRNA transfection efficiency in HEK293 cells (HEK293 cells [2]): 0.3%

CCCCCCCCCCCCCCCCCCSc1nc(NCCCN2CCN(C)CC2)nc(SCCCCCCCCCCCCCC)n1 [Compound S14S18D9]
Absolute DNA transfection efficiency in HEK293 cells (HEK293 cells [1]): 0.5%
Absolute mRNA transfection efficiency in HEK293 cells (HEK293 cells [2]): 0.6%

CCCCCCCCCCCCCCCCCCSc1nc(NCC2CCN(C)CC2)nc(SCCCCCCCCCCCCCC)n1 [Compound S14S18D10]
Absolute DNA transfection efficiency in HEK293 cells (HEK293 cells [1]): 1.7%
Absolute mRNA transfection efficiency in HEK293 cells (HEK293 cells [2]): 1.5%

CCCCCCCCCCCCCCCSc1nc(NCCN(C)C)nc(SCCCCCCCCCCCCCCC)n1 [Compound S15S15D1]
Absolute DNA transfection efficiency in HEK293 cells (HEK293 cells [1]): 1.0%
Absolute mRNA transfection efficiency in HEK293 cells (HEK293 cells [2]): 0.5%

CCCCCCCCCCCCCCCSc1nc(NCCN2CCOCC2)nc(SCCCCCCCCCCCCCCC)n1 [Compound S15S15D2]
Absolute DNA transfection efficiency in HEK293 cells (HEK293 cells [1]): 0.0%
Absolute mRNA transfection efficiency in HEK293 cells (HEK293 cells [2]): 0.0%

CCCCCCCCCCCCCCCSc1nc(NCCN2CCCC2)nc(SCCCCCCCCCCCCCCC)n1 [Compound S15S15D3]
Absolute DNA transfection efficiency in HEK293 cells (HEK293 cells [1]): 0.0%
Absolute mRNA transfection efficiency in HEK293 cells (HEK293 cells [2]): 0.2%

CCCCCCCCCCCCCCCSc1nc(NCCN2CCCCC2)nc(SCCCCCCCCCCCCCCC)n1 [Compound S15S15D4]
Absolute DNA transfection efficiency in HEK293 cells (HEK293 cells [1]): 1.5%
Absolute mRNA transfection efficiency in HEK293 cells (HEK293 cells [2]): 1.5%

CCCCCCCCCCCCCCCSc1nc(NCCN2CCN(C)CC2)nc(SCCCCCCCCCCCCCCC)n1 [Compound S15S15D5]
Absolute DNA transfection efficiency in HEK293 cells (HEK293 cells [1]): 0.3%
Absolute mRNA transfection efficiency in HEK293 cells (HEK293 cells [2]): 0.3%

CCCCCCCCCCCCCCCSc1nc(NCCCN(C)C)nc(SCCCCCCCCCCCCCCC)n1 [Compound S15S15D6]
Absolute DNA transfection efficiency in HEK293 cells (HEK293 cells [1]): 0.4%
Absolute mRNA transfection efficiency in HEK293 cells (HEK293 cells [2]): 0.9%

CCCCCCCCCCCCCCCSc1nc(NCCN(CC)CC)nc(SCCCCCCCCCCCCCCC)n1 [Compound S15S15D7]
Absolute DNA transfection efficiency in HEK293 cells (HEK293 cells [1]): 0.6%
Absolute mRNA transfection efficiency in HEK293 cells (HEK293 cells [2]): 0.5%

CCCCCCCCCCCCCCCSc1nc(NCCCN2CCOCC2)nc(SCCCCCCCCCCCCCCC)n1 [Compound S15S15D8]
Absolute DNA transfection efficiency in HEK293 cells (HEK293 cells [1]): 0.0%
Absolute mRNA transfection efficiency in HEK293 cells (HEK293 cells [2]): 0.2%

CCCCCCCCCCCCCCCSc1nc(NCCCN2CCN(C)CC2)nc(SCCCCCCCCCCCCCCC)n1 [Compound S15S15D9]
Absolute DNA transfection efficiency in HEK293 cells (HEK293 cells [1]): 0.4%
Absolute mRNA transfection efficiency in HEK293 cells (HEK293 cells [2]): 0.5%

CCCCCCCCCCCCCCCSc1nc(NCC2CCN(C)CC2)nc(SCCCCCCCCCCCCCCC)n1 [Compound S15S15D10]
Absolute DNA transfection efficiency in HEK293 cells (HEK293 cells [1]): 1.0%
Absolute mRNA transfection efficiency in HEK293 cells (HEK293 cells [2]): 0.3%

CCCCCCCCCCCCCCCCSc1nc(NCCN(C)C)nc(SCCCCCCCCCCCCCCC)n1 [Compound S15S16D1]
Absolute DNA transfection efficiency in HEK293 cells (HEK293 cells [1]): 1.7%
Absolute mRNA transfection efficiency in HEK293 cells (HEK293 cells [2]): 0.7%

CCCCCCCCCCCCCCCCSc1nc(NCCN2CCOCC2)nc(SCCCCCCCCCCCCCCC)n1 [Compound S15S16D2]
Absolute DNA transfection efficiency in HEK293 cells (HEK293 cells [1]): 0.0%
Absolute mRNA transfection efficiency in HEK293 cells (HEK293 cells [2]): 0.7%

CCCCCCCCCCCCCCCCSc1nc(NCCN2CCCC2)nc(SCCCCCCCCCCCCCCC)n1 [Compound S15S16D3]
Absolute DNA transfection efficiency in HEK293 cells (HEK293 cells [1]): 0.1%
Absolute mRNA transfection efficiency in HEK293 cells (HEK293 cells [2]): 0.2%

CCCCCCCCCCCCCCCCSc1nc(NCCN2CCCCC2)nc(SCCCCCCCCCCCCCCC)n1 [Compound S15S16D4]
Absolute DNA transfection efficiency in HEK293 cells (HEK293 cells [1]): 2.0%
Absolute mRNA transfection efficiency in HEK293 cells (HEK293 cells [2]): 3.2%

CCCCCCCCCCCCCCCCSc1nc(NCCN2CCN(C)CC2)nc(SCCCCCCCCCCCCCCC)n1 [Compound S15S16D5]
Absolute DNA transfection efficiency in HEK293 cells (HEK293 cells [1]): 0.2%
Absolute mRNA transfection efficiency in HEK293 cells (HEK293 cells [2]): 0.2%

CCCCCCCCCCCCCCCCSc1nc(NCCCN(C)C)nc(SCCCCCCCCCCCCCCC)n1 [Compound S15S16D6]
Absolute DNA transfection efficiency in HEK293 cells (HEK293 cells [1]): 0.2%
Absolute mRNA transfection efficiency in HEK293 cells (HEK293 cells [2]): 0.4%

CCCCCCCCCCCCCCCCSc1nc(NCCN(CC)CC)nc(SCCCCCCCCCCCCCCC)n1 [Compound S15S16D7]
Absolute DNA transfection efficiency in HEK293 cells (HEK293 cells [1]): 0.6%
Absolute mRNA transfection efficiency in HEK293 cells (HEK293 cells [2]): 0.4%

CCCCCCCCCCCCCCCCSc1nc(NCCCN2CCOCC2)nc(SCCCCCCCCCCCCCCC)n1 [Compound S15S16D8]
Absolute DNA transfection efficiency in HEK293 cells (HEK293 cells [1]): 0.0%
Absolute mRNA transfection efficiency in HEK293 cells (HEK293 cells [2]): 0.0%

CCCCCCCCCCCCCCCCSc1nc(NCCCN2CCN(C)CC2)nc(SCCCCCCCCCCCCCCC)n1 [Compound S15S16D9]
Absolute DNA transfection efficiency in HEK293 cells (HEK293 cells [1]): 0.3%
Absolute mRNA transfection efficiency in HEK293 cells (HEK293 cells [2]): 0.5%

CCCCCCCCCCCCCCCCSc1nc(NCC2CCN(C)CC2)nc(SCCCCCCCCCCCCCCC)n1 [Compound S15S16D10]
Absolute DNA transfection efficiency in HEK293 cells (HEK293 cells [1]): 0.6%
Absolute mRNA transfection efficiency in HEK293 cells (HEK293 cells [2]): 0.6%

CCCCCCCCCCCCCCCCCCSc1nc(NCCN(C)C)nc(SCCCCCCCCCCCCCCC)n1 [Compound S15S18D1]
Absolute DNA transfection efficiency in HEK293 cells (HEK293 cells [1]): 0.0%
Absolute mRNA transfection efficiency in HEK293 cells (HEK293 cells [2]): 0.0%

CCCCCCCCCCCCCCCCCCSc1nc(NCCN2CCOCC2)nc(SCCCCCCCCCCCCCCC)n1 [Compound S15S18D2]
Absolute DNA transfection efficiency in HEK293 cells (HEK293 cells [1]): 0.1%
Absolute mRNA transfection efficiency in HEK293 cells (HEK293 cells [2]): 0.5%

CCCCCCCCCCCCCCCCCCSc1nc(NCCN2CCCC2)nc(SCCCCCCCCCCCCCCC)n1 [Compound S15S18D3]
Absolute DNA transfection efficiency in HEK293 cells (HEK293 cells [1]): 2.6%
Absolute mRNA transfection efficiency in HEK293 cells (HEK293 cells [2]): 1.9%

CCCCCCCCCCCCCCCCCCSc1nc(NCCN2CCCCC2)nc(SCCCCCCCCCCCCCCC)n1 [Compound S15S18D4]
Absolute DNA transfection efficiency in HEK293 cells (HEK293 cells [1]): 0.3%
Absolute mRNA transfection efficiency in HEK293 cells (HEK293 cells [2]): 0.0%

CCCCCCCCCCCCCCCCCCSc1nc(NCCN2CCN(C)CC2)nc(SCCCCCCCCCCCCCCC)n1 [Compound S15S18D5]
Absolute DNA transfection efficiency in HEK293 cells (HEK293 cells [1]): 0.3%
Absolute mRNA transfection efficiency in HEK293 cells (HEK293 cells [2]): 0.4%

CCCCCCCCCCCCCCCCCCSc1nc(NCCCN(C)C)nc(SCCCCCCCCCCCCCCC)n1 [Compound S15S18D6]
Absolute DNA transfection efficiency in HEK293 cells (HEK293 cells [1]): 1.0%
Absolute mRNA transfection efficiency in HEK293 cells (HEK293 cells [2]): 0.0%
